Results on two molecules are retold here after patent publication US5164185A, “Pharmaceutical and cosmetic depigmentation compositions with a caffeic acid base” (priority 1989, dated 1992).

Each structure is given as a SMILES string.

Series [1] relates to melanocytes. The conditions noted are these: in words, prior art; cited from earlier work.
Series [2] has as its system melanin biosynthesis. As to the kind of experiment: depigmenting action (studies on substances used singly or in combination). Conditions: in words. From the text: In these latter, at least one of the active ingredients may be liposomes.
Series [3] has as its system fungus-derived tyrosinase. Description: in vitro tyrosinase inhibition, dopachrome formation by visible spectrophotometry (475 nm). In kind it is biochemical. The conditions noted are these: in words. The source says:
The efficacy of the various combination according to the invention have been studied in vitro by measuring out, using visible spectrophotometry (475 nm), the quantity of dopachrome formed during the chain of tyrosine-oxidation reactions. These oxidation reactions are catalyzed in vitro using fungus-derived tyrosinase in the presence of a co-substrate (for example, a small quantity of L-dopa) in order to trigger the hydroxylation reaction of L-tyrosine into L-dopa, this latter being then oxidized by catalysis into dopaquinone, then into dopachrome, an intermediate product formed before the non-enzymatic oxidation reactions leading to melanin formation.
Accordingly, the concentration of dopachrome formed over time is monitored in the presence of various inhibitors of tyrosinasic activity.
The concentrations of inhibitors are expressed as molar percents in relation to the concentration of tyrosine present in the reactive medium.
The inhibitory effect may be expressed, in relation to the control curve (absence of inhibitor) by lowering of the quantity of dopachrome formed and/or by a slowing of dopachrome-formation kinetics. […]

With `Oc1ccc(O)cc1` [hydroquinone], the “irritation and cytotoxicity for melanocytes” value in series [1] is “especially irritating and cytotoxic for melanocytes”.

Take `O=C(O)/C=C/c1ccc(O)c(O)c1` [caffeic acid]: in series [2], the depigmenting action entry is “especially interesting depigmenting action”. For the same molecule, the “inhibition of tyrosinasic activity leading to limited formation of dopachrome” value in series [3] is “inhibition of tyrosinasic activity”.
